Several values for one entry are separate records, joined by “and”; a condition that tells them apart may be missing. Equal values may be shown once.
Key:
[1] = test system: K562; experiment: Cytotoxicity of vincristine with or without nilotinib, MTT assay, K562; assay type: cell-based; conditions: Homo sapiens, K562, K562 cells, vincristine + 1μM Nilotinib, individual replicates
[2] = test system: mice; experiment: Gross motor performance, automated elevated ladder test; assay type: in vivo, mouse
[3] = Plasma pharmacokinetics of nilotinib in mice; assay type: in vivo, mouse; conditions: OATP1B2(-/-) mice; for concentration at […]: DBA/1LacJ, mouse, plasma, oral, Plasma concentration of nilotinib
Method: Pharmacokinetic studies. Pharmacokinetic studies were performed following an established protocol […]
0.5% hydroxypropyl-methylcellulose in water) was administered at a dose of 10 mg/kg . Serial whole blood samples (0.25, 0.5, 1, 2, 4, and 6 h) were collected from the submandibular vein for the initial three time - points, from the retro-orbital sinus vein for the subsequent two time-points, and cardiac puncture at the terminal time-point. Blood samples were centrifuged at 11,000 rpm for 5 min, and the plasma supernatants collected and stored at -80°C until analysis by a validated method based on reversed -phase liquid chromatography coupled to tandem mass-spectrometric detection (LC-MS/MS). Livers were collected from the same animals at endpoint and, to prevent continuing metabolic activity, tissues were snap frozen using liquid nitrogen. […]
mg/kg or 100 mg/kg, and after 1.5 h, plasma, liver, and whole DRG were collected. All plasma and tissue specimens were stored at -80°C until further processing. […]
were collected at the final time point. […]
specimens were stored at -80°C until further processing. All tissues were homogenized with 5-mm […]
Finally, the beads were removed, and
WinNonlin version 8.0 (Certara). […]
of the data from the concentration-time curves.
Determination of drug levels. […]
column was maintained at 50°C.

[4] = conventional chronic regimen; cited from earlier work
[5] = target: T1, hOATP1B1 (Homo sapiens, UniProt Q9Y6L6); experiment: Inhibition of EβG uptake in HEK293 cells overexpressing hOATP1B1; conditions: inhibitor 10 μM, 15-min pre-incubation
T1 sequence (Q9Y6L6 1-691): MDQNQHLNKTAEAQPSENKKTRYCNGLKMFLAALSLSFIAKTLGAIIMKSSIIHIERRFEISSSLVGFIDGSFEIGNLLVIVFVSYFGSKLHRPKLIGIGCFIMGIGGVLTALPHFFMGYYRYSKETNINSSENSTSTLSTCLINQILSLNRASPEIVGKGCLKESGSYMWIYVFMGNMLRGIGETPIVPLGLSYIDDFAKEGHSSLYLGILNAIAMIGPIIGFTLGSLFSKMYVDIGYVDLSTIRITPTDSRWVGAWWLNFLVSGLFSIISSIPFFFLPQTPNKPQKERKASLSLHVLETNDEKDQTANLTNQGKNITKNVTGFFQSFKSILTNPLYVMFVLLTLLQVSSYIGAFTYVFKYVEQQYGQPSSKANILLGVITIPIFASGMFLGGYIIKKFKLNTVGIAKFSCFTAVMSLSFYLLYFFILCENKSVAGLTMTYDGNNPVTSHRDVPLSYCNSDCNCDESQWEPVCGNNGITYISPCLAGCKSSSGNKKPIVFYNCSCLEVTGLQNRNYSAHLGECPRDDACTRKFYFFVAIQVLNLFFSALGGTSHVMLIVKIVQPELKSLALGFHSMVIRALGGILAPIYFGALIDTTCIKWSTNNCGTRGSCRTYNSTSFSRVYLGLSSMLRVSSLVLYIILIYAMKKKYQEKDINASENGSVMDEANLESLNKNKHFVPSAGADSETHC

[6] = target: T2, hOATP1B3 (Homo sapiens, UniProt Q9NPD5); experiment: Nilotinib uptake in HEK293 cells overexpressing hOATP1B3; assay type: in vitro ADME; conditions: HEK293 cells overexpressing hOATP1B3 vs vector control
T2 sequence (Q9NPD5 1-702): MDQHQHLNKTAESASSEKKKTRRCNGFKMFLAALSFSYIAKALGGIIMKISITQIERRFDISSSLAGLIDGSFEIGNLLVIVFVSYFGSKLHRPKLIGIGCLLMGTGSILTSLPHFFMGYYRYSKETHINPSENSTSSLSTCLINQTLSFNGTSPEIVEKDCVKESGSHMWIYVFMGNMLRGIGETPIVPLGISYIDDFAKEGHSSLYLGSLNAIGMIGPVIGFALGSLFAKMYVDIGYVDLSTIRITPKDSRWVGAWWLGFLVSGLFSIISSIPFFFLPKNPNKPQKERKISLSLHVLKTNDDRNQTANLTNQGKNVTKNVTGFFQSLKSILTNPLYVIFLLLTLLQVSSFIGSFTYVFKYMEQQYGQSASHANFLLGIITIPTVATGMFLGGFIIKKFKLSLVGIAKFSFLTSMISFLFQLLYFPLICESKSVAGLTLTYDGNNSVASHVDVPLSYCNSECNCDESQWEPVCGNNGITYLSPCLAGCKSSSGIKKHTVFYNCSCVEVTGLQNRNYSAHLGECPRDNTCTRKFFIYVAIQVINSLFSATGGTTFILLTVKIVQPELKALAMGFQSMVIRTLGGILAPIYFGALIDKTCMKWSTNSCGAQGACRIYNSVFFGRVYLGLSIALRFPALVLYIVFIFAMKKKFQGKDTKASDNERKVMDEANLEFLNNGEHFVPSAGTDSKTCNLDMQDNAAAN

Row | concentration at […] ([3]; 25 mg/kg) [ng/mL] | concentration at […] ([3]; 100 mg/kg) [ng/mL] | Plasma concentration of nilotinib ([3]; 25mg/kg) | Plasma concentration of nilotinib ([3]; 100mg/kg) | Structure (SMILES) | IC50 [1] [nM] | Gross motor performance (automated ladder and open field tests) ([2]; WT mice or OATP1B2-/- mice, single i.p. dose 1 mg/kg) | Number of missed steps ([2]; Wild-type mice, Day 2) | Median time from start of therapy to onset of QT events [4] [months] | Range of time from start of therapy to onset of QT events [4] | EβG uptake (% of vehicle) [5] | Nilotinib uptake (% of control) [6]
1 | – | – | – | – | CC[C@]1(O)C[C@H]2CN(CCc3c([nH]c4ccccc34)[C@@](C(=O)OC)(c3cc4c(cc3OC)N(C=O)[C@H]3[C@@](O)(C(=O)OC)[C@H](OC(C)=O)[C@]5(CC)C=CCN6CC[C@]43[C@@H]65)C2)C1 [Vincristine, vincristine] | 17.5 | did not affect gross motor performance | 7.667 and 9.667 and 8.333 and 5.667 and 8 and 10.6667 and 9.333 | – | – | – | –
2 | 8020 | 25800 | 9973.68 ng/mL and 13343.6 ng/mL | 22063.7 ng/mL and 33922 ng/mL | Cc1cn(-c2cc(NC(=O)c3ccc(C)c(Nc4nccc(-c5cccnc5)n4)c3)cc(C(F)(F)F)c2)cn1 [Nilotinib, nilotinib] | – | – | – | > 14 | 2–68 months | 9.108 % of vehicle and 9.828 % of vehicle and 15.7637 % of vehicle | 123.521 % of control and 118.661 % of control and 108.968 % of control
